IC50 data for 34 molecules are collected here from patent US12023333B2, “Phenyl-sulfamoyl.benzoyc acids as ERAP1 modulators” (GREY WOLF THERAPEUTICS LIMITED, priority 2019, dated 2024).

For the assay, the target named is T1, Purified ERAP1(37-941)-10His (ERAP1) (Homo sapiens, UniProt Q9NZ08).
T1 construct: Purified ERAP1(37-941)-10His (ERAP1); 10His (C)
As to the kind of experiment: ERAP1 mediated hydrolysis of an amide substrate measured in a biochemical system (10-mer decapeptide substrate). Particulars: 10-mer substrate, 23° C. for 1 h, excitation 279 nm and emission 355 nm; read-out: IC50 vs Decapeptide WRVYEKC(Dnp)ALK-acid (where Dnp is Dinitrophenyl maleimide) (10-mer). The protocol:
Biological Assay 1: ERAP1 Mediated Hydrolysis of an Amide Substrate Measured in a Biochemical System
1× Assay buffer (AB): 25 mM Bis-tris propane, 0.05% w/v Hydroxypropylmethylcellulose pH 7.75 made with Optima grade water
Decapeptide WRVYEKC(Dnp)ALK-acid (where Dnp is Dinitrophenyl maleimide) (10-mer) L-Leucine 7-amido-4-methylcoumarin (L-AMC)
12.5 μL ERAP1 enzyme in 1×AB was combined with 250 nL test compound in DMSO. 12.5 μL of either 240 μM L-AMC in 1×AB or 100 μM 10-mer in 1×AB was added to the reaction and incubated at 23° C. for 1 h. For detection, plates were read at excitation 365 nm and emission 442 nm (L-AMC) or excitation 279 nm and emission 355 nm (10-mer). Compound IC50 was determined using a 4 parameter equation.

T1 sequence (Q9NZ08 37-941): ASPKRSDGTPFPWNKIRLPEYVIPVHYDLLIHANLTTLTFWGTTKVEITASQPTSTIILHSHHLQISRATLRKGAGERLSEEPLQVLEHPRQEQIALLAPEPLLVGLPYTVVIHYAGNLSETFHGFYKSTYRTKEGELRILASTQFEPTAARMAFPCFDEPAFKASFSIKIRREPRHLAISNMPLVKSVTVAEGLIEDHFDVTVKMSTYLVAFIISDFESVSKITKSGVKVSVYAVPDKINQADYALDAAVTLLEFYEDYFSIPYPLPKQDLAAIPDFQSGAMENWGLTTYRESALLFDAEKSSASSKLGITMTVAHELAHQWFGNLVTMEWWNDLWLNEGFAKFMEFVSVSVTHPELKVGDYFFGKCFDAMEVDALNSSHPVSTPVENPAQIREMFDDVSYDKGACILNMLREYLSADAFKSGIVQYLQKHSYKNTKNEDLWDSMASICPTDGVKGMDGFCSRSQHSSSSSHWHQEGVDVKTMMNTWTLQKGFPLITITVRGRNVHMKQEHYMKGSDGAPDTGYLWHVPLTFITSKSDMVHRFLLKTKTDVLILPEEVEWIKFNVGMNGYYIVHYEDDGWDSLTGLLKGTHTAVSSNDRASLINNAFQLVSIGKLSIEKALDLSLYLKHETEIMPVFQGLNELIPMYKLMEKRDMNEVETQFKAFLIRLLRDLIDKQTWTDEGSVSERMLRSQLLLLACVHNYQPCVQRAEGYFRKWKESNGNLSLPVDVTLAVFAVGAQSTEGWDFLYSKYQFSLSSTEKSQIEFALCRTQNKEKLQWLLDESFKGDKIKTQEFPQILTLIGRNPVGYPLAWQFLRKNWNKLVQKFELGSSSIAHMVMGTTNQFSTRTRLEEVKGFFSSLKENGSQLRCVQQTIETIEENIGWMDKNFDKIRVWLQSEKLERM

Take `COc1ccc(C(=O)O)cc1S(=O)(=O)Nc1cc(-c2nnn[nH]2)ccc1-c1ccccc1` [Example 63, 3-(N-(4-(tetrazol-5-yl)-[1,1′-biphenyl]-2-yl)sulfamoyl)-4-methoxybenzoic acid]: the concentration for half-maximal inhibition (IC50) was < 500 nM. For `COc1ccc(C(=O)O)cc1S(=O)(=O)Nc1cc(-c2nnn[nH]2)ccc1-c1cccc(F)c1` [Example 64, 3-(N-(3′-fluoro-4-(tetrazol-5-yl)-[1,1′-biphenyl]-2-yl)sulfamoyl)-4-methoxybenzoic acid], the 50% inhibitory concentration (IC50) was < 500 nM. For the molecule `COc1ccc(C(=O)O)cc1S(=O)(=O)Nc1cc(-c2nnn[nH]2)ccc1-c1cccs1` [Example 65, 3-(N-(5-(tetrazol-5-yl)-2-(thiophen-2-yl)phenyl)sulfamoyl)-4-methoxybenzoic acid], the IC50 is < 500 nM.

In the case of `CCc1ccc(C(=O)O)cc1S(=O)(=O)Nc1cc(C(F)(F)F)ccc1-c1ncccc1F` [Example 66, 4-ethyl-3-(N-(2-(3-fluoropyridin-2-yl)-5-(trifluoromethyl)phenyl)sulfamoyl)benzoic acid], the IC50 was < 500 nM.

For `CCc1ccc(C(=O)O)cc1S(=O)(=O)Nc1cc(C(F)(F)F)ccc1-c1ccc(F)s1` [Example 67, 4-ethyl-3-(N-(2-(5-fluorothiophen-2-yl)-5-(trifluoromethyl)phenyl)sulfamoyl)benzoic acid], the IC50 was < 500 nM.

Consider `CCc1ccc(C(=O)O)cc1S(=O)(=O)Nc1cc(C(F)(F)F)ccc1-c1ncccn1` [Example 68, 4-ethyl-3-(N-(2-(pyrimidin-2-yl)-5-(trifluoromethyl)phenyl)sulfamoyl)benzoic acid], for which the half-inhibitory concentration (IC50) was < 500 nM. For the molecule `CCc1ccc(C(=O)O)cc1S(=O)(=O)Nc1cc(C(F)(F)F)ccc1-c1ccc[nH]1` [Example 69, 3-(N-(2-(pyrrol-2-yl)-5-(trifluoromethyl)phenyl)sulfamoyl)-4-ethylbenzoic acid], the IC50 was < 500 nM. Turning to `CCc1ccc(C(=O)O)cc1S(=O)(=O)Nc1cc(C(F)(F)F)ccc1-c1ccc(Cl)s1` [Example 70, 3-(N-(2-(5-chlorothiophen-2-yl)-5-(trifluoromethyl)phenyl)sulfamoyl)-4-ethylbenzoic acid], the IC50 was < 500 nM.

As to `CCc1ccc(C(=O)O)cc1S(=O)(=O)Nc1cc(S(C)(=O)=O)ccc1-c1ccccn1` [Example 71, 4-ethyl-3-(N-(5-(methylsulfonyl)-2-(pyridin-2-yl)phenyl)sulfamoyl)benzoic acid], the 50% inhibitory concentration (IC50) is < 500 nM. With `O=C(O)c1ccc(C2CC2)c(S(=O)(=O)Nc2cc(C(F)(F)F)ccc2-c2ccccn2)c1` [Example 72, 4-cyclopropyl-3-(N-(2-(pyridin-2-yl)-5-(trifluoromethyl)phenyl)sulfamoyl)benzoic acid] the figure was < 500 nM; with `CCc1ccc(C(=O)O)cc1S(=O)(=O)Nc1cc(C(F)(F)F)ccc1-c1cccn1C` [Example 73, 4-ethyl-3-(N-(2-(1-methyl-pyrrol-2-yl)-5-(trifluoromethyl)phenyl)sulfamoyl)benzoic acid], < 500 nM. `CS(=O)(=O)c1ccc(-c2cccs2)c(NS(=O)(=O)c2cc(C(=O)O)ccc2C2CC2)c1` [Example 74, 4-cyclopropyl-3-(N-(5-(methylsulfonyl)-2-(thiophen-2-yl)phenyl)sulfamoyl) benzoic acid]: the IC50 was < 500 nM. Consider `N#Cc1ccc(-c2cccs2)c(NS(=O)(=O)c2cc(C(=O)O)ccc2C2CC2)c1` [Example 75, 3-(N-(5-cyano-2-(thiophen-2-yl)phenyl)sulfamoyl)-4-cyclopropylbenzoic acid], for which the IC50 was < 500 nM. Consider `O=C(O)c1ccc(C2CC2)c(S(=O)(=O)Nc2cc(C(F)(F)F)ccc2-c2cccs2)c1` [Example 76, 4-cyclopropyl-3-(N-(2-(thiophen-2-yl)-5-(trifluoromethyl)phenyl)sulfamoyl)benzoic acid], for which the IC50 was < 500 nM. For the molecule `CCc1ccc(C(=O)O)cc1S(=O)(=O)Nc1cc(C(F)(F)F)ccc1-c1ccc(C#N)s1` [Example 77, 3-(N-(2-(5-cyanothiophen-2-yl)-5-(trifluoromethyl)phenyl)sulfamoyl)-4-ethylbenzoic acid], the IC50 was < 500 nM. With `COc1ccc(C(=O)O)cc1S(=O)(=O)Nc1cc(S(C)(=O)=O)ccc1-c1cccs1` [Example 78, 4-methoxy-3-(N-(5-(methylsulfonyl)-2-(thiophen-2-yl)phenyl)sulfamoyl) benzoic acid], the half-maximal inhibitory concentration (IC50) was < 500 nM.

For `COc1ccc(C(=O)O)cc1S(=O)(=O)Nc1cc(C(F)(F)F)ccc1-c1ccc(C)s1` [Example 79, 4-methoxy-3-(N-(2-(5-methylthiophen-2-yl)-5-(trifluoromethyl)phenyl)sulfamoyl)benzoic acid], the IC50 was < 500 nM. With `CCc1ccc(C(=O)O)cc1S(=O)(=O)Nc1cc(C#N)ccc1-c1ccc(C)s1` [Example 80, 3-(N-(5-cyano-2-(5-methylthiophen-2-yl)phenyl)sulfamoyl)-4-ethylbenzoic acid] the figure was < 500 nM; with `COc1ccc(C(=O)O)cc1S(=O)(=O)Nc1cc(C#N)ccc1-c1ccc(C)s1` [Example 81, 3-(N-(5-cyano-2-(5-methylthiophen-2-yl)phenyl)sulfamoyl)-4-methoxybenzoic acid], < 500 nM; with `CS(=O)(=O)c1ccc(-c2ccccn2)c(NS(=O)(=O)c2cc(C(=O)O)ccc2C2CC2)c1` [Example 82, 4-cyclopropyl-3-(N-(5-(methylsulfonyl)-2-(pyridin-2-yl)phenyl)sulfamoyl) benzoic acid], < 500 nM. With `N#Cc1ccc(-c2ccccn2)c(NS(=O)(=O)c2cc(C(=O)O)ccc2C2CC2)c1` [Example 83, 3-(N-(5-cyano-2-(pyridin-2-yl)phenyl)sulfamoyl)-4-cyclopropylbenzoic acid] the figure was < 500 nM; with `CCc1ccc(C(=O)O)cc1S(=O)(=O)Nc1cc(S(C)(=O)=O)ccc1-c1ccc(C)s1` [Example 84, 4-ethyl-3-(N-(5-(methylsulfonyl)-2-(5-methylthiophen-2-yl)phenyl)sulfamoyl) benzoic acid], < 500 nM; with `COc1ccc(C(=O)O)cc1S(=O)(=O)Nc1cc(S(C)(=O)=O)ccc1-c1ccc(C)s1` [Example 85, 4-methoxy-3-(N-(5-(methylsulfonyl)-2-(5-methylthiophen-2-yl)phenyl)sulfamoyl)benzoic acid], < 500 nM.

`Cc1ccc(-c2ccc(C(F)(F)F)cc2NS(=O)(=O)c2cc(C(=O)O)ccc2C2CC2)s1` [Example 86, 4-cyclopropyl-3-(N-(2-(5-methylthiophen-2-yl)-5-(trifluoromethyl)phenyl)sulfamoyl)benzoic acid]: the concentration for half-maximal inhibition (IC50) is < 500 nM. With `COc1ccc(C(=O)O)cc1S(=O)(=O)Nc1cc(C(F)(F)F)ccc1-c1ccc(Cl)s1` [Example 87, 3-(N-(2-(5-chlorothiophen-2-yl)-5-(trifluoromethyl)phenyl)sulfamoyl)-4-methoxybenzoic acid], the IC50 is < 500 nM. Take `COc1ccc(C(=O)O)cc1S(=O)(=O)Nc1cc(S(C)(=O)=O)ccc1-c1ccc(Cl)s1` [Example 88, 3-(N-(2-(5-chlorothiophen-2-yl)-5-(methylsulfonyl)phenyl)sulfamoyl)-4-methoxybenzoic acid]: the IC50 was < 500 nM. Take `CCc1ccc(C(=O)O)cc1S(=O)(=O)Nc1cc(S(C)(=O)=O)ccc1-c1ccc(Cl)s1` [Example 89, 3-(N-(2-(5-chlorothiophen-2-yl)-5-(methylsulfonyl)phenyl)sulfamoyl)-4-ethylbenzoic acid]: the half-maximal inhibitory concentration (IC50) is < 500 nM. In the case of `COc1ccc(C(=O)O)cc1S(=O)(=O)Nc1cc(C#N)ccc1-c1ccc(Cl)s1` [Example 90, 3-(N-(2-(5-chlorothiophen-2-yl)-5-cyanophenyl)sulfamoyl)-4-methoxybenzoic acid] it was < 500 nM; in that of `CCc1ccc(C(=O)O)cc1S(=O)(=O)Nc1cc(C#N)ccc1-c1ccc(Cl)s1` [Example 91, 3-(N-(2-(5-chlorothiophen-2-yl)-5-cyanophenyl)sulfamoyl)-4-ethylbenzoic acid], < 500 nM; in that of `O=C(O)c1ccc(C2CC2)c(S(=O)(=O)Nc2cc(C(F)(F)F)ccc2-c2cccc(F)c2)c1` [Example 92, 4-cyclopropyl-3-(N-(3′-fluoro-4-(trifluoromethyl)-[1,1′-biphenyl]-2-yl)sulfamoyl)benzoic acid], < 500 nM.

In the case of `CS(=O)(=O)c1ccc(-c2cccc(F)c2)c(NS(=O)(=O)c2cc(C(=O)O)ccc2C2CC2)c1` [Example 93, 4-cyclopropyl-3-(N-(3′-fluoro-4-(methylsulfonyl)-[1,1′-biphenyl]-2-yl)sulfamoyl)benzoic acid], the IC50 is < 500 nM. With `N#Cc1ccc(-c2cccc(F)c2)c(NS(=O)(=O)c2cc(C(=O)O)ccc2C2CC2)c1` [Example 94, 3-(N-(4-cyano-3′-fluoro-[1,1-biphenyl]-2-yl)sulfamoyl)-4-cyclopropylbenzoic acid], the IC50 was < 500 nM. With `Cc1ccc(-c2ccc(C#N)cc2NS(=O)(=O)c2cc(C(=O)O)ccc2C2CC2)s1` [Example 95, 3-(N-(5-cyano-2-(5-methylthiophen-2-yl)phenyl)sulfamoyl)-4-cyclopropylbenzoic acid], the IC50 was < 500 nM. On to `N#Cc1ccc(-c2ccccc2)c(NS(=O)(=O)c2cc(C(=O)O)ccc2C2CC2)c1` [Example 96, 3-(N-(4-cyano-[1,1′-biphenyl]-2-yl)sulfamoyl)-4-cyclopropylbenzoic acid], for which the IC50 was < 500 nM.
